Assay results reported in patent publication US4596802A, “Thiadiazole derivatives active on the central nervous system and pharmaceutical compositions” (Sanofi, priority 1984, dated 1986).

Columns and labels:
dopaminergic receptors = test: Rotation behavior, unilateral striatal lesion by 6-hydroxydopamine; format: in vivo, female CD1 mice; details: Mus musculus, ip; mice, intraperitoneal, 1 hour after administration, rotations over 2 minutes; read-out: MED (minimum dose necessary to cause a significant reduction in the number of ipsilateral rotations)
Description: This test is the one described by PROTAIS et al. (Journal de Pharmacologie,Paris, 7, 251-255, 1976). Female mice (Charles River, CD1) weighing from 25 to 30 g were subjected beforehand to a unilateral lesion of the striatum by the stereotaxic injection of 6-hydroxydopamine at a rate of 8 μg per animal. One week after this operation, the products were administered intraperitoneally to groups of 7 mice. 1 hour after administration of the product, the number of rotations was evaluated for 2 minutes. The rotations on the same side as the lesion were counted as positive and those on the opposite side as negative. The algebraic sum of the rotations for one group of treated animals was compared with that of the group of control animals which had only received the vehicle (aqueous solution of gum). In this test, stimulants of the dopaminergic receptors (apomorphine type) reduce the spontaneous rotations whereas indirect dopaminomimetic agents (amphetamine type) increase them. The results are expressed as MED (minimum effective dose), i.e. the minimum dose necessary to cause a significant reduction (Student's t-test) in the number of ipsilateral rotations spontaneously observed in the control animals.

[1] = tested on: trembling induced by L-5-HTP; test: Potentiation of the trembling induced by L-5-HTP; format: in vivo, female CD1 mice; details: Mus musculus, ip; mice, intraperitoneal, 1 hour before L-5-HTP 200 mg/kg i.p.; observed 20 minutes; read-out: ED50 (dose which induces trembling in 50% of the animals treated)
Text: Its injection into mice causes a behavioral syndrome characterized in particular by violent trembling. Antidepressants which inhibit the recapture of serotonin or monoamine oxidase inhibitors (MAOI) potentiate this effect of […], 1959). The protocol described by […] (Biochem. Pharmacol., 2, 290-298, 1959) was used. […] The results are expressed as ED50, i.e. the dose which induces trembling in 50% of the animals treated.

[2] = tested on: ptosis induced by reserpine; test: Antagonism of the ptosis induced by reserpine; format: in vivo, female CD1 mice; details: Mus musculus, ip; mice, intraperitoneal; reserpine 2 mg/kg i.v. simultaneously; read at 1 hour; read-out: ED50 (dose which completely blocks the ptosis induced by reserpine in 50% of the animals)
Description: This test, described by GOURET et al. (Journal de Pharmacologie, Paris, 8, 333-350, 1977), was performed on female CD1 mice (Charles River) weighing 20±1 g. Reserpine causes ptosis 1 hour after intravenous administration; the majority of antidepressants oppose this ptosis. The following protocol was chosen. The substances to be studied were administered intraperitoneally and the reserpine was simultaneously administered intravenously at a dose of 2 mg/kg. […] This test was performed on groups of 10 mice; the results are expressed as ED50 (50% effective dose), i.e. the dose which completely blocks the ptosis induced by reserpine in 50% of the animals.

[3] = Acute toxicity, mortality within 24 hours, intraperitoneal; details: mouse, in vivo, ip, mice, dose of 300 mg/kg
Description: The products to be studied were administered intraperitoneally in increasing doses to groups of 10 mice (CD1, Charles River; 20±1 g).
From the results obtained, the 50% lethal dose, i.e. the dose causing the death of 50% of the animals, was determined for each of the products studied.

Compound	minimal effective dose (dopaminergic receptors) [mg/kg]	ED50 [1] [mg/kg]	ED50 [2] [mg/kg]	mortality at 24 h [3] [%]
c1ccc2c(-c3nnc(NCCN4CCOCC4)s3)cccc2c1 [SR 95559 A]	0.1			
Clc1ccc(-c2nnc(NCCN3CCOCC3)s2)cc1 [SR 95340 A]		3.6	8.8	
COc1ccc(-c2nnc(NCCN3CCOCC3)s2)cc1 [SR 43198, 2-(2-morpholinoethylamino)-5-(4-methoxyphenyl)-1,3,4-thiadiazole]		7		
FC(F)(F)c1cccc(-c2nnc(NCCN3CCOCC3)s2)c1 [SR 43531 A]		7.8		
Cl.Cl.c1ccc(-c2nnc(NCCN3CCOCC3)s2)cc1 [SR 95311 A, 2-(2-Morpholinoethylamino)-5-phenyl-1,3,4-thiadiazole dihydrochloride]	0.1	6	4.6	
COc1ccc(-c2nnc(NCCN3CCOCC3)s2)cc1OC [SR 43295, 2-(2-morpholinoethylamino)-5-(3,4-dimethoxyphenyl)-1,3,4-thiadiazole]	0.1			
Clc1cccc(-c2nnc(NCCN3CCOCC3)s2)c1 [SR 95396 A]	0.1		11.3	
c1ccc(-c2ccc(-c3nnc(NCCN4CCOCC4)s3)cc2)cc1 [SR 43294]	0.1			
C1CCC(c2nnc(NCCN3CCOCC3)s2)CC1 [SR 43058, 2-(2-Morpholinoethylamino)-5-cyclohexyl-1,3,4-thiadiazole]		17	22	
CCN(CC)CCNc1nnc(-c2ccccc2)s1 [Compound B, reference compound]			43	90
Cl.Cl.Oc1ccc(-c2nnc(NCCN3CCOCC3)s2)cc1 [SR 43202 A, 2-(2-Morpholinoethylamino)-5-(4-hydroxyphenyl)-1,3,4-thiadiazole dihydrochloride]	0.1			
Clc1ccccc1-c1nnc(NCCN2CCOCC2)s1 [SR 95397 A]	0.1	14.5	18	
C1CCC(c2nnc(NCCN3CCOCC3)s2)C1 [SR 43057 A]			23	
FC(F)(F)c1ccc(-c2nnc(NCCN3CCOCC3)s2)cc1 [SR 43604]	0.1			
Cl.Cl.Oc1ccc(-c2nnc(NCCN3CCOCC3)s2)cc1O [SR 43296 A, 2-(2-Morpholinoethylamino)-5-(3,4-dihydroxyphenyl)-1,3,4-thiadiazole dihydrochloride]	0.1			
CN(C)CCNc1nnc(-c2ccccc2)s1 [Compound A, reference compound]			32	70
O=[N+]([O-])c1ccc(-c2nnc(NCCN3CCOCC3)s2)cc1 [SR 43530]	0.1	6.2		
